These results are taken from US20130085304A1, “PROCESSES FOR PREPARATION OF POLYMORPHIC FORMS OF LACOSAMIDE” (priority 2009, published 2013).

Data set [1] in a line: Effect of time on stability of polymorphic form. In kind it is physicochemical. The protocol:
Polymorphic Form A of lacosamide was kept at 0° C. to 5° C. for 3 months.
Polymorphic Form B of lacosamide was kept at 0° C. to 5° C. for 7 months.

A short description of data set [2]: Solubility of polymorphic Form A and Form B in de-ionized water. The method, then:
Lacosamide polymorphic Forms A and B were tested for solubility studies by dissolving the Form A or Form B in de-ionized water.

Data set [3] in a line: Drying of Example 3 wet mass at rising temperatures, polymorph checked by XRD. Conditions: for Product characterized (based on XRD thereof) as: 6 hours. In kind it is physicochemical. The method, then:
Lacosamide (20 g) was added to ethyl acetate (120 ml) at ambient temperature and heated at 75° C. to 80° C. This was cooled to ambient temperature in 1 hour and then filtered. […] The wet mass was dried at the following temperatures each for the specified time and analyzed.

For `COC[C@@H](NC(C)=O)C(=O)NCc1ccccc1` [Form A, (R)-2-acetamido-N-benzyl-3-methoxypropionamide], the “Polymorphic form on reanalysis after storage” value in data set [1] (kept at 0° C. to 5° C. for 3 months) is “characterized as Form A”. Moreover, the “Solubility status in de-ionized water (1 in 45 parts)” value in data set [2] is recorded as “Sparingly soluble”. The “Product characterized (based on XRD thereof) as” value in data set [3] (Example 3 wet mass dried at 35-40 °C), in data set [3] (Example 3 wet mass dried at 40-45 °C), in data set [3] (Example 3 wet mass dried at 45-50 °C), in data set [3] (Example 3 wet mass dried at 50-55 °C), in data set [3] (Example 3 wet mass dried at 55-60 °C) and in data set [3] (Example 3 wet mass dried at 60-65 °C) was “Crystalline Form A” in each case. Besides, in data set [3] (heated for 36 hours in the temperature range of 35° C. to 65° C.), the “Change in polymorph pattern on heating” value was “no change in polymorph pattern”.
Turning to `COC[C@@H](NC(C)=O)C(=O)NCc1ccccc1` [Form B, (R)-2-acetamido-N-benzyl-3-methoxypropionamide], in data set [1] (kept at 0° C. to 5° C. for 7 months), the “Polymorphic form on reanalysis after storage” value is “characterized as Form B”.
